Laboratory results as given in US12083115B2, “Methods for treating neurological symptoms associated with lysosomal storage diseases” (Genzyme Corporation, priority 2020, dated 2024).

What was measured:
Format in all cases: in vivo, human
[1] = test system: glucosylsphingosine (lyso-GL1); assay: Clinical study in GD-3 patients: lyso-GL1 in plasma and CSF; details: for Lyso-GL-1 (% change): 52-weeks compared to baseline; for Lyso-GL-1 concentration, 52-weeks (mean) / Lyso-GL-1 concentration, 52-weeks: 15 mg/day + imiglucerase; for Lyso-GL-1 concentration, 52-weeks: all six patients
Procedure: The endpoint assessments are related to safety, CSF biomarkers, pharmacokinetics/pharmacodynamics, systemic disease, and neuroimaging and neurological function (CNS/neurological manifestations).
During the study patients were evaluated for safety and tolerability, CSF and plasma biomarkers (glucosylceramide, GL-1; glucosylsphingosine, lyso-GL1), pharmacokinetics, markers for systemic disease (spleen and liver volume measured by magnetic resonance imaging (MRI), platelet count, hemoglobin levels), indicia of interstitial lung disease (high resolution pulmonary computed tomography (CT)), and horizontal saccadic eye movement. In addition, exploratory biomarkers were quantified in CSF of GD3 patients: ceramide (the precursor of GL-1), chitotriosidase (CHITO), GM3, and GPNMB. Symptoms of ataxia were measured using the SARA scale, neurological symptoms were measured using the trail making test, and functional MRI was used to assess neural connectivity in the brain.
Over all six GD3 patients, plasma and CSF GL-1 and lyso-GL-1 concentrations were as follows:
At Week 52, the CSF lyso-GL1 concentrations for Patient 5 were above the upper limit of quantification (ULOQ; >100 pg/mL), and biomarker results for CSF lyso-GL1 were therefore imputed using the exact ULOQ values. […] Mean results for the other study subjects were as follows (N=10; Patient 5 excluded): […]

[2] = test system: adult patients with Gaucher disease Type 3; assay: Clinical study in GD-3 patients: ataxia, SARA scale; set-up: key to SARA Cumulative Score, Average Score excluding Patient 4 / SARA Cumulative Score / SARA Cumulative Score, Average Score: SARA, eight ataxia attributes summed, 0-40 scale; details: for SARA Cumulative Score: 15 mg/day + imiglucerase; for SARA Cumulative Score, Average Score: screening 2.83
[3] = test system: adult patients with Gaucher disease Type 3; assay: Clinical study in GD-3 patients: vMRI brain tissue volume (TBM analysis); details: for Group A mean change in volume from Baseline to Week 52: Group A (eight patients), 15 mg/day + imiglucerase; for Patient 5 change in volume from Baseline to Week 52: Patient 5 (Compound 2 below LLOQ after 52 weeks)
Description: Neurological function was further evaluated using volumetric magnetic resonance imaging (vMRI). The vMRI data was collected at screening sessions at baseline and after 52 weeks of the treatment regime for eight patients (“Group A”) and an additional isolated patient (Patient 5). Group A corresponds to the eleven patients described above, excluding Patient 5 and two other patients lacking analyzable vMRI data.
vMRI data was obtained and subsequently analyzed using FreeSurfer anatomic parcellation and a Tensor-Based Morphometry (TBM) analysis cycle. FreeSurfer is an opensource software package for the analysis and visualization of structural and functional neuroimaging data developed by the Laboratory for Computational Neuroimaging. TBM analysis (also known as Jacobian Integration) consists in estimating the volume changes as captured within the deformation fields resulting from applying a symmetric deformable registration technique between a pair of MR scans (baseline and follow-up), using a non-linear symmetric log-demons deformation technique using robust cross-correlation metric to ensure invertibility of the transformation (symmetric process). The deformation field is then analyzed by computing the determinant of its Jacobian matrix, which is a measure of local volume change. An integration of the determinant over a region of interest provides an estimation of the change rate of the volume of this brain region over time.
The overall pipeline takes as input a baseline (BL) and a follow-up (FU) image and consists of the following steps: • 1. Preprocessing and reformatting; • 2. Segmentation of baseline (BL) and follow-up (FU) using FreeSurfer; • 3. Multi-resolution rigid and affine registration of FU and BL to midspace; • 4. Symmetric deformable nonlinear registration between FU and BL; • 5. Jacobian image computation; • 6. Voxel-wise volume change computation; • 7. Region-wise volume change integration; and • 8. Output for the changes for regions of interest specified for the study.

CC(C)(NC(=O)O[C@@H]1CN2CCC1CC2)c1csc(-c2ccc(F)cc2)n1 [Compound 2, (S)-quinuclidin-3-yl 2-(2-(4-fluorophenyl)thiazol-4-yl)propan-2-ylcarbamate]
Lyso-GL-1 (% change) ([1]; CSF Concentration, N = 6, 15 mg/day + imiglucerase): −55.9% | Lyso-GL-1 (% change) ([1]; CSF Concentration, N=10, Patient 5 excluded): −68% ± 17.2% | Lyso-GL-1 concentration, 52-weeks (mean) ([1]; CSF, N=10, Patient 5 excluded, Baseline 45.0 pg/mL): 14.5 pg/mL | Lyso-GL-1 concentration, 52-weeks ([1]; CSF, Baseline 34.0 pg/mL): 17.3 pg/mL | increase in plasma lyso-GL1 ([1]; Patient 5 (reduced Compound 2 exposure), Week 52 compared to baseline): about 43% | increase in CSF lyso-GL1 ([1]; Patient 5 (reduced Compound 2 exposure), Week 52 compared to baseline, imputed with ULOQ): about 313% | CSF lyso-GL1 concentration ([1]; Patient 5, Week 52, above ULOQ): > 100 pg/mL | Lyso-GL-1 (% change) ([1]; Plasma Concentration, N = 6, 15 mg/day + imiglucerase): −56.7% | Lyso-GL-1 (% change) ([1]; Plasma Concentration, N=10, Patient 5 excluded): −53% ± 13.5% | Lyso-GL-1 concentration, 52-weeks (mean) ([1]; Plasma, N=10, Patient 5 excluded, Baseline 27.6 ng/ml): 13600 pg/mL | Lyso-GL-1 concentration, 52-weeks ([1]; Plasma, Baseline 29.3 ng/ml): 15200 pg/mL | patients with positive correlation between reduction in CSF GL-1 and SARA score ([2]; 52 weeks, 11 patients): 8 of 11 | patients showing improvements in ataxia ([2]; 52 weeks, N = 6, 15 mg/day + imiglucerase): 5 of 6 | SARA Cumulative Score ([2]; Patient 1, Week 26, screening 3.0): 1.0 | SARA Cumulative Score ([2]; Patient 2, Week 26, screening 3.0): 2.0 | SARA Cumulative Score ([2]; Patient 2, Week 52, screening 3.0): 1.5 | SARA Cumulative Score ([2]; Patient 3, Week 26, screening 3.5): 0.0 | SARA Cumulative Score ([2]; Patient 3, Week 52, screening 3.5): 0.0 | SARA stance score ([2]; Patient 4, Week 26 (baseline 1)): 1 | SARA Cumulative Score ([2]; Patient 4, Week 26, screening 3.0): 5.0 | SARA stance score ([2]; Patient 4, Week 52 (baseline 1; left knee pain, injured toe)): 5 | SARA Cumulative Score ([2]; Patient 6, Week 26, screening 4.0): 2.0 | SARA Cumulative Score ([2]; Patient 6, Week 52, screening 4.0): 3.0 | SARA Cumulative Score ([2]; Patient 7, Week 26, screening 5.5): 7.5 | SARA Cumulative Score ([2]; Patient 7, Week 52, screening 5.5): 5.0 | SARA Cumulative Score ([2]; Patient 8, Week 26, screening 2.0): 0.5 | SARA Cumulative Score ([2]; Patient 8, Week 52, screening 2.0): 0 | SARA Cumulative Score ([2]; Patient 9, Week 26, screening 0.0): 0.0 | SARA Cumulative Score ([2]; Patient 9, Week 52, screening 0.0): 0.0 | SARA Cumulative Score ([2]; Patient 10, Week 26, screening 2.0): 2.0 | SARA Cumulative Score ([2]; Patient 10, Week 52, screening 2.0): 1.0 | SARA Cumulative Score ([2]; Patient 11, Week 26, screening 3.0): 3.0 | SARA Cumulative Score ([2]; Patient 11, Week 52, screening 3.0): 2.0 | SARA Cumulative Score, Average Score ([2]; Patients 1-6, Week 26): 1.67 | SARA Cumulative Score, Average Score ([2]; Patients 1-6, Week 52): 2.00 | SARA Cumulative Score, Average Score excluding Patient 4 ([2]; Week 26, screening 2.80): 1.00 | patients exhibiting an improvement in ataxia ([2]; Week 52, Excluding Patient 5): 4 out of 5 | patients exhibiting an improvement in ataxia ([2]; Week 52, five new patients excluding Patient 9): 4 out of 4 | gait on videotaped straight-line walk ([2]; two patients, week 26 and week 52 compared to baseline): steadier, better coordinated, and faster gait | whole brain tissue volume ([3]; Group A, 52 weeks, FIG. 1): overall increase in whole brain tissue volume | Group A mean change in volume from Baseline to Week 52 ([3]; Left Cuneus): +37.16 mm^3 | Patient 5 change in volume from Baseline to Week 52 ([3]; Left Cuneus): −23.9 mm^3 | Group A mean change in volume from Baseline to Week 52 ([3]; Left Entorhinal Cortex): +34.53 mm^3 | Patient 5 change in volume from Baseline to Week 52 ([3]; Left Entorhinal Cortex): +41.4 mm^3 | Group A mean change in volume from Baseline to Week 52 ([3]; Left Lingual): +50.08 mm^3 | Patient 5 change in volume from Baseline to Week 52 ([3]; Left Lingual): −60.0 mm^3 | Group A mean change in volume from Baseline to Week 52 ([3]; Left Pericalcarine Lobe): +18.46 mm^3 | Patient 5 change in volume from Baseline to Week 52 ([3]; Left Pericalcarine Lobe): −29.2 mm^3 | Group A mean change in volume from Baseline to Week 52 ([3]; Left Putamen): +94.70 mm^3 | Patient 5 change in volume from Baseline to Week 52 ([3]; Left Putamen): −51.7 mm^3 | whole brain volume ([3]; Patient 5 (did not successfully undergo the treatment regime), 52 weeks, FIG. 1): decrease in whole brain volume | Group A mean change in volume from Baseline to Week 52 ([3]; Right Accumbens Area): +12.86 mm^3 | Patient 5 change in volume from Baseline to Week 52 ([3]; Right Accumbens Area): −52.1 mm^3 | Group A mean change in volume from Baseline to Week 52 ([3]; Right Amygdala): +60.78 mm^3 | Patient 5 change in volume from Baseline to Week 52 ([3]; Right Amygdala): −63.4 mm^3 | Group A mean change in volume from Baseline to Week 52 ([3]; Right Postcentral Lobe): +91.66 mm^3 | Patient 5 change in volume from Baseline to Week 52 ([3]; Right Postcentral Lobe): −63.4 mm^3 | Group A mean change in volume from Baseline to Week 52 ([3]; Right Putamen): +97.84 mm^3 | Patient 5 change in volume from Baseline to Week 52 ([3]; Right Putamen): −63.1 mm^3
